Measurements published in PMC7076515, “Impact of Mucin on Drug Diffusion: Development of a Straightforward In Vitro Method for the Determination of Drug Diffusivity in the Presence of Mucin” (Pharmaceutics, 2020).
“Also recorded” adds a separate entry of the source.

Tests used:
[1] = UV-visible localized spectroscopy: drug diffusion coefficient in water (D0); settings: no mucin; drug in PBS 65 mOsm/kg pH 7.4 injected into water; 23–25 °C; average of two parallel experiments
[2] = test system: mucin from porcine stomach type III; assay: UV-visible localized spectroscopy: diffusion from mucin dispersions into water (Drel), and of mucin itself; type: physicochemical; settings: compared to the absence of mucin
Text: Mucin type III from porcine stomach was dispersed in PBS 65 mOsm/kg (pH 7.4) to obtain 0.1, 0.3 and 0.6% (w/w) mucin dispersions.
In brief, Fick’s second law of diffusion was analytically solved (Equation (1)) assuming times (t) and positions (x) such that t ≪ h2/D and x ≪ h (where h is the full length of the cuvette occupied by water, 3.30 cm). […] (1) c(x,t)=2A/π e^−x^2/2σ^2+4Dt/2σ^2+4Dt

[3] = parameters: method as in Drugbank [15]; settings: ref Drugbank [15], cited from earlier work
[4] = test system: purified gastric mucin type II; parameters: method as in PMID 9188047, PMID 9487548; settings: ref [24],[25]; cited from earlier work
[5] = parameters: method as in PMID 9188047, PMID 9487548; settings: ref [24],[25]; cited from earlier work

| D0 (diffusion coefficient in plain water) [1] | D Reduction (%) ([2]; MUC 0.0%) | D Reduction (%) ([2]; MUC 0.1% w/w) | D Reduction (%) ([2]; MUC 0.3% w/w) | D Reduction (%) ([2]; MUC 0.6% w/w) | Compound | Charge at pH 7.4 [3] | pKa [3] | Diffusion in purified gastric mucin versus phosphate buffer [4] | Diffusion in native pig intestinal mucus [5] |
| --- | --- | --- | --- | --- | --- | --- | --- | --- | --- |
| 8.02 10^−6 cm^2/s | 0 | 25 | 53 | 65 | COc1ccc2cc([C@H](C)C(=O)O)ccc2c1 [NPR, naproxen] | – | – | – | – |
| 6.44 10^−6 cm^2/s | 0 | 17 | 36 | 37 | C[C@]12CCC(=O)C=C1CC[C@@H]1[C@@H]2[C@@H](O)C[C@@]2(C)[C@H]1CC[C@]2(O)C(=O)CO [HYD, hydrocortisone] | 0 | 12.6 | comparable to the one in phosphate buffer; also recorded: not hindered compared to phosphate buffer | impaired to a higher extent; also recorded: slow down the diffusion |
| 5.81 10^−6 cm^2/s | 0 | 24 | 47 | 63 | CC(C)NCC(O)COc1ccc(CC(N)=O)cc1 (stereo not shown) [ATN, Atenolol] | – | – | – | – |

| Compound | D0 (diffusion coefficient in plain water) [1] | D Reduction (%) ([2]; MUC 0.0%) | D Reduction (%) ([2]; MUC 0.1% w/w) | D Reduction (%) ([2]; MUC 0.3% w/w) | D Reduction (%) ([2]; MUC 0.6% w/w) | Charge at pH 7.4 [3] | pKa [3] | Diffusion in purified gastric mucin versus phosphate buffer [4] | Diffusion in native pig intestinal mucus [5] |
| --- | --- | --- | --- | --- | --- | --- | --- | --- | --- |
| Cn1c(=O)c2c(ncn2C)n(C)c1=O [CAF, caffeine] | 9.07 10^−6 cm^2/s | 0 | 33 | 51 | 67 | 0 | – | – | – |
